Experimental data: patent US10851093B2, “Tyrosine kinase inhibitors” (Rigel Pharmaceuticals, Inc., priority 2018, dated 2020)
pEC50: −log10 of the molar value.

Key:
Axl = biological target: T1, Axl (Homo sapiens, UniProt P30530); assay: Phospho-AKT HTRF, HUVEC, Axl ABX-L, 8 pt; type: cell-based; conditions: HUVEC cells, pAkt(Ser473) HTRF, Axl ABX-L stimulation
T1 construct: Seed HUVECs (10K cells/well) in EBM-2 complete media; host or cells: HUVEC
T1 sequence (P30530 26-894): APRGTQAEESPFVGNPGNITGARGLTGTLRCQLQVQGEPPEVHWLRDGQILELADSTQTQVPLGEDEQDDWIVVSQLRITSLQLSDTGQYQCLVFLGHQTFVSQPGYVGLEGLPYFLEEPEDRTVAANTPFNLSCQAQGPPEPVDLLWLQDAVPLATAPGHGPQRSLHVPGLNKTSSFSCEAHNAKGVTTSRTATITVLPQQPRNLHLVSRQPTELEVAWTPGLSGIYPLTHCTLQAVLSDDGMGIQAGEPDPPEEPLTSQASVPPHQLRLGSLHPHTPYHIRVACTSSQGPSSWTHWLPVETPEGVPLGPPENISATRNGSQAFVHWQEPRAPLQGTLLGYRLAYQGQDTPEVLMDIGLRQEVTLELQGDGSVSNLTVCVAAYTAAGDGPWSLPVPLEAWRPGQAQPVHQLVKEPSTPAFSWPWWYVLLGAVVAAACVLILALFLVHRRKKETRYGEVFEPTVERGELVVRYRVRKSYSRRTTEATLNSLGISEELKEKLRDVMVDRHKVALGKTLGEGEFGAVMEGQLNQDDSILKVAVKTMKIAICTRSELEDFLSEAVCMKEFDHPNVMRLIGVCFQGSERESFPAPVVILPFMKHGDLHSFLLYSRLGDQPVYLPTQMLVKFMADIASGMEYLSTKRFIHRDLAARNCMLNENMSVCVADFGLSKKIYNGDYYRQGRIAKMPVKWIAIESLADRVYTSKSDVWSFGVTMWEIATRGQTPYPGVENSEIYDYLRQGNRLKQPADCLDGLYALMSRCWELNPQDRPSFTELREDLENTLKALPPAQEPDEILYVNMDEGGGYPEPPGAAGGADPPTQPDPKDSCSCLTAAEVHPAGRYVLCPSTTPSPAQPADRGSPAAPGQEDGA
Protocol: [The source words this procedure for another target and reports this target under the same test.] (§1) Example 13: PAKT HTRF-HUVEC Assay
(§2) Seed HUVECs (10K cells/well) in EBM-2 complete media (EBM-2 basal medium plus EGM-2 BulletKit supplements) overnight at 37° C., 5% CO2 in Costar 96-well white clear-bottom plates. Remove culture media and starve cells for 3-4 hours in 50 μL/well EBM-2 basal medium. Perform serial dilution of compounds in DMSO from 2.5 mM in 4-fold dilutions, and then dilute 1:125 in EBM-2 basal media. Mix 50 μL/well 2× compounds with 50 μL/well HUVECs in duplicate in Costar 96-well white clear-bottom plates. Incubate plates for 1 hour at 37° C., 5% CO2. Cross-link anti-human MerTK antibody to Biotin-SP-conjugated anti-mouse IgG antibody (1:1) to give final concentrations of 5 μg/mL of anti-human MerTK-XL. Stimulate HUVECs with 25 μL/well 5× anti-human MerTK-XL to give final concentrations of 1 ug/mL for 10 minutes at 37° C., 5% CO2. Completely remove media and lyse HUVECs with 40 uL:WELL per well of Cisbio HTRF 1× lysis buffer. Performed pAkt(Ser473) HTRF assay in ProxiPlate-384 Plus, white 384-shallow well microplate according to the vendor protocol and read plates with a SpectralMax Paradigm plate reader. Enter the HTRF values into Athena (Rigel) for curve fitting, EC50 calculation, and database storage.

MerTK = biological target: T2, MerTK (Homo sapiens, UniProt Q12866); assay: Phospho-AKT HTRF, HUVEC, Mer-XL, 8 pt (pAKT HTRF-HUVEC assay, anti-human MerTK-XL stimulation); type: cell-based; conditions: HUVEC cells, pAkt(Ser473) HTRF, anti-human MerTK-XL stimulation 1 ug/mL 10 minutes
T2 construct: Seed HUVECs (10K cells/well) in EBM-2 complete media; host or cells: HUVEC
T2 sequence (Q12866 21-999): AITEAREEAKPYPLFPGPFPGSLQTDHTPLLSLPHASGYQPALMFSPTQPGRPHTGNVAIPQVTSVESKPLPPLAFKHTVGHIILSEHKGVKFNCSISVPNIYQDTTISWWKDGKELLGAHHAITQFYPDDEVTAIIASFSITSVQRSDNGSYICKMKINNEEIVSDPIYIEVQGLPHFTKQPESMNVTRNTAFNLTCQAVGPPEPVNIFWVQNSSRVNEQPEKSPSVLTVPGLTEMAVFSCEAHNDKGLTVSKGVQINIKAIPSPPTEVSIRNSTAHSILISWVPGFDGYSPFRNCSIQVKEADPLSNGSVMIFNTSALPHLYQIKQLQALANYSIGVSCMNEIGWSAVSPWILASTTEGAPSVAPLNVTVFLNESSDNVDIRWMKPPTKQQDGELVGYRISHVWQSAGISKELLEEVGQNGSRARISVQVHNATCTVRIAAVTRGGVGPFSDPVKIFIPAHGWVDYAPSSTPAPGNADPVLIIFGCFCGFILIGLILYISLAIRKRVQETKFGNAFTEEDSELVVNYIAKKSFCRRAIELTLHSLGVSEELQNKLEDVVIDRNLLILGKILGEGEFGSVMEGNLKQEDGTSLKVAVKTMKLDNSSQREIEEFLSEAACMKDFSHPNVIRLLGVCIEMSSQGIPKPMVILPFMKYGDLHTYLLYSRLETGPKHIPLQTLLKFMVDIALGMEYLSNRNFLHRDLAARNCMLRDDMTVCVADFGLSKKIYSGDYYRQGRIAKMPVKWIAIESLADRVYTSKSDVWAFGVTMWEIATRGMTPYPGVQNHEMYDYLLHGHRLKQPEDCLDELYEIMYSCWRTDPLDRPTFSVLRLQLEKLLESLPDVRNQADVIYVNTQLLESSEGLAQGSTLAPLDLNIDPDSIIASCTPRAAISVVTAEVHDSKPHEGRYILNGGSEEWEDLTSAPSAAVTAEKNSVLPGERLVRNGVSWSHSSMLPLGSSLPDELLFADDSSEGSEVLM
Protocol: as §1, §2

Row | Structure (SMILES) | pEC50 (Axl) | pEC50 (MerTK)
1 | COc1cc2c(Oc3ccc(NC(=O)c4cccc(-c5ccccc5)n4)nc3)ccnc2cc1OCCCN1CCOCC1 [Compound 10, N-(5-((6-Methoxy-7-(3-morpholinopropoxy)quinolin-4-yl)oxy)pyridin-2-yl)-6-phenylpicolinamide] | 7.89 | 8.31
2 | COc1cc2c(Oc3ccc(NC(=O)c4cc(-c5ccccc5)ccn4)nc3)ccnc2cc1OCCCN1CCOCC1 [Compound 3, N-(5-((6-Methoxy-7-(3-morpholinopropoxy)quinolin-4-yl)oxy)pyridin-2-yl)-4-phenylpicolinamide] | 6.79 | 7.01
3 | COc1cc2c(Oc3ccc(NC(=O)c4cc(N5CCC(C)(C)CC5)ccn4)nc3)ccnc2cc1OCCCN1CCOCC1 [Compound 22, 4-(4,4-dimethylpiperidin-1-yl)-N-(5-((6-methoxy-7-(3-morpholinopropoxy)quinolin-4-yl)oxy)pyridin-2-yl)picolinamide] | 6.73 | 7.02
4 | COc1cc2c(Oc3ccc(NC(=O)c4cc(N5CCC(F)(F)CC5)ccn4)nc3)ccnc2cc1OCCCN1CCOCC1 [Compound 21, 4-(4,4-difluoropiperidin-1-yl)-N-(5-((6-methoxy-7-(3-morpholinopropoxy)quinolin-4-yl)oxy)pyridin-2-yl)picolinamide] | 7.20 | 7.09
5 | COc1cc2c(Oc3ccc(NC(=O)c4cc(N5CCCCC5)ccn4)nc3)ccnc2cc1OCCCN1CCOCC1 [Compound 13, N-(5-((6-methoxy-7-(3-morpholinopropoxy)quinolin-4-yl)oxy)pyridin-2-yl)-4-(piperidin-1-yl)picolinamide] | 7.27 | 7.69
6 | COc1cc2c(Oc3ccc(NC(=O)c4nccc(-c5ccccc5)n4)nc3)ccnc2cc1OCCCN1CCOCC1 [Compound 4, N-(5-((6-Methoxy-7-(3-morpholinopropoxy)quinolin-4-yl)oxy)pyridin-2-yl)-4-phenylpyrimidine-2-carboxamide] | 8.30 | 8.41
7 | COc1cc2c(Oc3ccc(NC(=O)c4nc(-c5ccccc5)c5c(n4)C4CCN5CC4)nc3)ccnc2cc1OCCCN1CCOCC1 [Compound 6, N-(5-((6-methoxy-7-(3-morpholinopropoxy)quinolin-4-yl)oxy)pyridin-2-yl)-4-phenyl-7,8-dihydro-6H-5,8-ethanopyrido[3,2-d]pyrimidine-2-carboxamide, hydrochloric acid] | 8.48 | 8.60

Continued, values first:

Row | pEC50 (Axl) | pEC50 (MerTK) | Structure (SMILES)
8 | 7.26 | 7.35 | COc1cc2c(Oc3ccc(NC(=O)c4csc(-c5ccc(F)cc5)n4)nc3)ccnc2cc1OCCCN1CCOCC1 [Compound 43, 2-(4-fluorophenyl)-N-(5-((6-methoxy-7-(3-morpholinopropoxy)quinolin-4-yl)oxy)pyridin-2-yl)thiazole-4-carboxamide]
9 | 7.30 | 7.33 | COc1cc2c(Oc3ccc(NC(=O)c4csc(-c5ccccc5)n4)nc3)ccnc2cc1OCCCN1CCOCC1 [Compound 42, N-(5-((6-methoxy-7-(3-morpholinopropoxy)quinolin-4-yl)oxy)pyridin-2-yl)-2-phenylthiazole-4-carboxamide]
10 | 6.95 | 7.84 | COc1cc2c(Oc3ccc(NC(=O)c4cccc(N5CCOCC5)n4)nc3)ccnc2cc1OCCCN1CCOCC1 [Compound 25, N-(5-((6-methoxy-7-(3-morpholinopropoxy)quinolin-4-yl)oxy)pyridin-2-yl)-6-morpholinopicolinamide]
11 | 7.42 | 7.20 | COc1cc2c(Oc3ccc(NC(=O)c4nc(-c5ccccc5)c5c(n4)C4CCN5CC4)nc3)ccnc2cc1OCc1ccccc1 [Compound 37, N-(5-((7-(benzyloxy)-6-methoxyquinolin-4-yl)oxy)pyridin-2-yl)-4-phenyl-7,8-dihydro-6H-5,8-ethanopyrido[3,2-d]pyrimidine-2-carboxamide]
